Test system: Botrytis cinerea
Test: Test for controlling effect against cucumber gray mold
Format: in vivo, Botrytis cinerea on cucumber
Settings: 500 ppm wettable powder spray, 5 ml per pot; cucumber first leaf stage; lesion areas three days after inoculation

Compound	Inhibition rate (%) at concentration of 500 ppm Cucumber gray mold [%]
CCCCOC(c1cccc(-n2nc(C(N)=O)nc2C2CCCCC2)c1)C(C)C (centres unmarked) [Compound 5, 1-[3-[(1-butoxy-2-methyl)propyl]phenyl]-5-cyclohexyl-1H-1,2,4-triazole-3-carboxamide]	82
CCCCOC(c1cccc(-n2nc(C(N)=O)nc2Cc2ccccc2)c1)C(C)C (centres unmarked) [Compound 6, 1-[3-[(1-butoxy-2-methyl)propyl]phenyl]-5-(phenylmethyl)-1H-1,2,4-triazole-3-carboxamide]	80

— patent EP0562480B1, “1-phenyl-5-substituted-1H-1, 2,4-triazole-3-carboxamide derivates, process for preparation of the same, and fungicidal composition comprising the same” (KUREHA CHEMICAL INDUSTRY CO., LTD., priority 1992, dated 1993)
